# Test results published in patent US11266650B2, “Pharmaceutical composition for preventing and treating nonalcoholic steatohepatitis, hepatic fibrosis, and liver cirrhosis, comprising adenosine derivatives” (FUTURE MEDICINE CO., LTD., priority 2016, dated 2022).
# Several values for one entry are separate records, joined by “and”; a condition that tells them apart may be missing. Equal entries are not always repeated.
# Tests used:
# [1] = Pharmacokinetic test in ICR male mice (Experimental Example 13); type: in vivo; conditions: mouse, plasma, po, P.O., 10 mg/kg
# Description: (§1) Intravenous administration was performed through a tube inserted into the femoral vein, and oral administration was performed using oral gavage.
# (§2) After the administration, the experimental animals' blood was taken at predetermined time intervals for 24 hours. Then, the blood was centrifuged to separate plasma. The plasma samples were pretreated with a suitable organic solvent, and then the concentration of the plasma samples was analyzed by LC-MS/MS. […] The results of noncompartmental pharmacokinetic parameters calculated from the blood concentration-time data are shown in Tables 9 through 13. In FIGS. 12 through 16, I.V. represents an intravenous administration group, P.O. represents an oral administration group, and the definition of each parameter in Tables 9 through 13 is shown in Table 14.
# PAMPA = type: in vitro ADME
# each cell line = test: Cytotoxicity, Cyto X cell viability assay kit; type: cell-based
# pKa = type: physicochemical
# ICR mice = test: Toxicity assay, intraperitoneal injection, mice; conditions: i.p. 20, 10 and 1 mg/kg
# Description: (§4) The compounds synthesized in the examples of the present invention were assayed for cytotoxicity in animals.
# SPF Sprague Dawley rats = test: Toxicity assay, intraperitoneal injection, rats; conditions: i.p. 20, 10 and 1 mg/kg
# Description: as §4
# Log P = type: physicochemical
# [2] = Pharmacokinetic test in SD male rats (Experimental Examples 11, 12, 15); type: in vivo; conditions: plasma, rat; for Vd: read-out: Vss; for bioavailability: read-out: Ft (bioavailability)
# Description: as §1, §2
# [3] = test system: histidine-requiring Salmonella (strains TA98, TA100, TA1535 and TA1537) and tryptophan-requiring Escherichia coli (strain WP2uvrA (pKM101)); type: cell-based
# Source text: In addition, for each strain, the number of back-mutant colonies in the positive control group certainly exceeded twice the number of back-mutant colonies in the negative control group.
# hERG channel protein = hERG channel protein (Homo sapiens, UniProt Q12809); test: hERG ligand binding assay (fluorescence polarization)
# [4] = Plasma protein binding, rat plasma; type: in vitro ADME
# Description: (§3) Plasma stability and protein binding were measured using rat and human plasma.
# Kinetic solubility = type: physicochemical; conditions: kinetic from dmso stock
# [5] = Plasma protein binding, human plasma; type: in vitro ADME
# Description: as §3
# [6] = Plasma stability, rat plasma; type: in vitro ADME
# Description: as §3
# rats [7] = test: Single-dose toxicity in rats; conditions: rat, in vivo
# Equilibrium solubility = type: physicochemical; conditions: thermodynamic from solid
# rats [8] = conditions: rat, in vivo
# [9] = Pharmacokinetic test in dogs (Experimental Example 14); type: in vivo; conditions: dog, plasma; for bioavailability: read-out: Ft (bioavailability)
# Description: as §1, §2
# [10] = Plasma stability, human plasma; type: in vitro ADME
# Description: as §3
# [11] = po, 5 mg/kg, P.O., 5 mg/kg (Exp. 11-2)
# [12] = po, 10 mg/kg, 10 mg/kg (Exp. 12-2)
# [13] = po, 10 mg/kg, oral 10 mg/kg in 0.5% MC (Exp. 15-1)
# [14] = po, 10 mg/kg, oral 10 mg/kg in Vehicle: 5% DMSO, 40% PEG400 and 55% DW (Exp. 15-2)
# [15] = po, 10 mg/kg, G2, PO, dissolved in a solvent
# [16] = po, 10 mg/kg, G3, PO, powder state in a capsule
# Sequence of hERG channel protein (Q12809 whole entry): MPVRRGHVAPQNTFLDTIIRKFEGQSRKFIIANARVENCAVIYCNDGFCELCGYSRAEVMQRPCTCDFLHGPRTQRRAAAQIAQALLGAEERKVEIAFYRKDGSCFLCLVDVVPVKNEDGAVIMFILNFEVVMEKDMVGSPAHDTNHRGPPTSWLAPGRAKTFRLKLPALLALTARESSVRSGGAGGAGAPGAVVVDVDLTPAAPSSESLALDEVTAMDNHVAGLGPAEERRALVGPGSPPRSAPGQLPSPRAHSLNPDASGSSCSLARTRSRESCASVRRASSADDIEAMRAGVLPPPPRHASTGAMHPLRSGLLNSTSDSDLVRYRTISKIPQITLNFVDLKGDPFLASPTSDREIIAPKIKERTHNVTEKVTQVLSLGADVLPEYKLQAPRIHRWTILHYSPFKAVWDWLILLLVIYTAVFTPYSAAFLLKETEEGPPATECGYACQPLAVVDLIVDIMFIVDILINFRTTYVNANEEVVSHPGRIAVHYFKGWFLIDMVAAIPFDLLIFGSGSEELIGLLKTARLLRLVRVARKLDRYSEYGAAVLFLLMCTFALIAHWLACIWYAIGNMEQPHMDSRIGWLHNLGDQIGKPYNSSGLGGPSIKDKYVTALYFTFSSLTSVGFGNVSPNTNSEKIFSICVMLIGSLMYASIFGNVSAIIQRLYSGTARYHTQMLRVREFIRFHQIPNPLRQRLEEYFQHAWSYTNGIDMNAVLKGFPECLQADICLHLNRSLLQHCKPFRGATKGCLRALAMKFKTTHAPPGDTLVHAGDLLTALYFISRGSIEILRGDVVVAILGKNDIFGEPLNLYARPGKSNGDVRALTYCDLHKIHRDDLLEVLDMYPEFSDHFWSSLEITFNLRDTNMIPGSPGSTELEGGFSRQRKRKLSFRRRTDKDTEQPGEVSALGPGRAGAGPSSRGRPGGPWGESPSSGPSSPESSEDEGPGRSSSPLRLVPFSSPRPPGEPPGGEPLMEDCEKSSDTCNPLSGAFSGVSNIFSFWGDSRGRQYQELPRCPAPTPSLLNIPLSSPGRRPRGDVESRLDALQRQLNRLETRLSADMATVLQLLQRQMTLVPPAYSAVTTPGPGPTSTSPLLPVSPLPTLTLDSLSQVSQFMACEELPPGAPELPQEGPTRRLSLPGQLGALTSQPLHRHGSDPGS
structure (smiles),measurement,setting,value
"O[C@@H]1[C@H](O)CS[C@H]1n1cnc2c(NCc3cccc(Cl)c3)nc(Cl)nc21 [Example 2, (2R,3R,4S)-2-(2-Chloro-6-(3-chlorobenzylamino)-9H-purin-9-yl)tetrahydrothiophen-3,4-diol]",AUC(0-inf),[1],102 ± 13.5 µg·h/mL
same,AUC(0-t),[1],100000 ± 13200 ng·h/mL
same,Cmax,[1],8570 ± 1520 ng/mL
same,Tmax,[1],6.13 ± 3.75 h
same,half-life,[1],217 ± 18 min
same,PAMPA,PAMPA,−4.49
same,"Toxicity, Cytotoxicity evaluation",each cell line,Not detected
same,IC50,each cell line; each cell line,≥ 10 µM
same,pKa,pKa,11.3
same,weight gain or feed intake vs control group,ICR mice,No difference in weight gain or feed intake
same,death,ICR mice; 24 hrs observation,No death was observed
same,weight gain or feed intake vs control group,SPF Sprague Dawley rats,No difference in weight gain or feed intake
same,death,SPF Sprague Dawley rats; 24 hrs observation,No death was observed
same,logP,Log P,3.18
same,clearance,"[2]; iv, I.V., 5 mg/kg",6.05 mL/min/kg
same,Vd,"[2]; iv, I.V., 5 mg/kg",0.881 ± 0.203 L/kg
same,bioavailability,"[2]; po, P.O., 5 mg/kg",49.7%
same,clearance,"[2]; IV, 2 mg/kg",6.08 mL/min/kg
same,Vd,"[2]; IV, 2 mg/kg",2.27 ± 0.863 L/kg
same,bioavailability,"[2]; PO, 10 mg/kg (Exp. 12-2)",> 99.9%
same,AUC(0-inf),"[2]; iv, 2 mg/kg",5490 ± 300 ng·h/mL
same,AUC(0-t),"[2]; iv, 2 mg/kg",5200 ± 548 ng·h/mL
same,half-life,"[2]; iv, 2 mg/kg, 2 mg/kg (Exp. 12-1)",360 ± 179 min
same,AUC(0-inf),"[2]; iv, 5 mg/kg, I.V.",14100 ± 2590 ng·h/mL
same,AUC(0-t),"[2]; iv, 5 mg/kg, I.V.",14000 ± 2550 ng·h/mL
same,half-life,"[2]; iv, 5 mg/kg, I.V., 5 mg/kg (Exp. 11-1)",216 ± 35.3 min
same,AUC(0-inf),"[2]; po, 5 mg/kg, P.O.",7040 ± 551 ng·h/mL
same,AUC(0-t),"[2]; po, 5 mg/kg, P.O.",6980 ± 584 ng·h/mL
same,Cmax,[2]; [11],1450 ± 255 ng/mL
same,Tmax,[2]; [11],1.33 ± 0.577 h
same,half-life,[2]; [11],196 ± 56.7 min
same,AUC(0-inf),[2]; [12],26700 ± 75 ng·h/mL
same,AUC(0-t),[2]; [12],26500 ± 5880 ng·h/mL
same,Cmax,[2]; [12],2710 ± 183 ng/mL
same,Tmax,[2]; [12],2.42 ± 3.13 h
same,half-life,[2]; [12],200 ± 4.5 min
same,AUC(0-inf),[2]; [13],41400 ± 26000 ng·h/mL
same,AUC(0-t),[2]; [13],40100 ± 26800 ng·h/mL
same,Cmax,[2]; [13],5720 ± 6110 ng/mL
same,Tmax,[2]; [13],1.33 ± 0.58 h
same,half-life,[2]; [13],274 ± 168 min
same,AUC(0-inf),[2]; [14],26700 ± 75 ng·h/mL
same,AUC(0-t),[2]; [14],26500 ± 5880 ng·h/mL
same,Cmax,[2]; [14],2710 ± 183 ng/mL
same,Tmax,[2]; [14],2.42 ± 3.13 h
same,half-life,[2]; [14],200 ± 4.5 min
same,"Toxicity, Genotoxicity evaluation",[3],Not detected
same,number of back-mutant colonies vs negative control group,"[3]; all doses of each strain, with and without metabolic activation",did not exceed twice the number of back-mutant colonies of the negative control group
same,"Toxicity, hERG ligand binding assay evaluation",hERG channel protein,Not detected
same,"inhibition rate, hERG ligand binding",hERG channel protein; 10 μM of the compound,≤ 50%
same,fraction unbound,[4],0.098
same,solubility kinetic,Kinetic solubility,361 µM and 149 µg/mL
same,fraction unbound,[5],0.013
same,Plasma stability,[6],> 99.9%
same,"Toxicity, Single-dose toxicity evaluation",rats [7],Not detected
same,solubility thermodynamic,Equilibrium solubility,6.7 µM and 2.76 µg/mL
same,death after single dose,rats [8],no animals died
same,AUC(0-inf),"[9]; iv, 2 mg/kg, G1, IV",1070 ± 620 ng·h/mL
same,AUC(0-t),"[9]; iv, 2 mg/kg, G1, IV",948 ± 464 ng·h/mL
same,half-life,"[9]; iv, 2 mg/kg, G1, IV",130 ± 52 min
same,bioavailability,"[9]; po, 10 mg/kg, G2, PO, 10 mg/kg, dissolved in a solvent",82%
same,AUC(0-inf),[9]; [15],3990 ± 1090 ng·h/mL
same,AUC(0-t),[9]; [15],3880 ± 1030 ng·h/mL
same,Cmax,[9]; [15],467 ± 73 ng/mL
same,Tmax,[9]; [15],1.67 ± 0.58 h
same,half-life,[9]; [15],253 ± 84.6 min
same,bioavailability,"[9]; po, 10 mg/kg, G3, PO, 10 mg/kg, powder state in a capsule",> 99.9%
same,AUC(0-inf),[9]; [16],6350 ± 830 ng·h/mL
same,AUC(0-t),[9]; [16],5640 ± 840 ng·h/mL
same,Cmax,[9]; [16],1140 ± 230 ng/mL
same,Tmax,[9]; [16],2 h
same,half-life,[9]; [16],332 ± 184 min
same,clearance,"[9]; G1, IV, 2 mg/kg",37.8 mL/min/kg
same,Vd,"[9]; G1, IV, 2 mg/kg, read-out: Vss",6.02 ± 0.79 L/kg
same,Plasma stability,[10],98.9%
